US9187411B2, “Leukotriene B4 antagonist compound” (Eli Lilly and Company, priority 2012, dated 2015)

Target: T1, PPARγ (Homo sapiens, UniProt P37231)
T1 construct: made in house; host or cells: Sf9 insect cells (baculovirus), crude cell lysate
T1 sequence (P37231 1-505): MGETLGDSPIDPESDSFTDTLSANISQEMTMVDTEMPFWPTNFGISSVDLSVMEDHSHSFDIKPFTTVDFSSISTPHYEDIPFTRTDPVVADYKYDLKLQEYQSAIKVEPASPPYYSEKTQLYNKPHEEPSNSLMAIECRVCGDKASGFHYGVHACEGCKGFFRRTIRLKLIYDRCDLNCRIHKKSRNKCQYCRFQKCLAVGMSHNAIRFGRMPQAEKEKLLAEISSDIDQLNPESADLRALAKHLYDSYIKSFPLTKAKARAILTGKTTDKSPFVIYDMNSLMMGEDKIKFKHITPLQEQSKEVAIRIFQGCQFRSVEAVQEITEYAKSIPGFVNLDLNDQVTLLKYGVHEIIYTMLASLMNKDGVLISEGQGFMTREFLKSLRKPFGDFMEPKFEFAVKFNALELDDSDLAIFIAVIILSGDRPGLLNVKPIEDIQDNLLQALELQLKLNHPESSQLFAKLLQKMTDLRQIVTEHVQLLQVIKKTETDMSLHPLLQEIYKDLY
T1 sequence (P19793 1-462 partner): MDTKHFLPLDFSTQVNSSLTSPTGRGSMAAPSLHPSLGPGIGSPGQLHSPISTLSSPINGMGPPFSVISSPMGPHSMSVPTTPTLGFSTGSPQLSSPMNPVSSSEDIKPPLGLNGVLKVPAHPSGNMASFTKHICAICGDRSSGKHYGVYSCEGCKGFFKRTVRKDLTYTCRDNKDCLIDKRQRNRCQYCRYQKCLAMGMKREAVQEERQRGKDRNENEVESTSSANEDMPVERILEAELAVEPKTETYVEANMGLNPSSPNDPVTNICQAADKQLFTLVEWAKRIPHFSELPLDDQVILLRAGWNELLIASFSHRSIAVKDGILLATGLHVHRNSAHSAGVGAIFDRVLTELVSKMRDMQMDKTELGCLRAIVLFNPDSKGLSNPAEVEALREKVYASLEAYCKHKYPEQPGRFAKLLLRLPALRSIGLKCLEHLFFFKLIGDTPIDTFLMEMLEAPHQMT
Assay: PPAR gamma binding assay (SPA)
Details: n=2, read-out: Ki PPAR γ binding
From the text: The nucleotide sequences encoding full-length PPARα receptor DNA (National Center for Biotechnology Information (NCBI) Reference Sequence NM_005036.4), PPARδ receptor DNA (NCBI Reference Sequence NM_006238.4), PPARγ receptor DNA (NCBI Reference Sequence NM_015869.4) and Retinoid X Receptor (RXR) α DNA (NCBI Reference Sequence NM_002957.4) are synthesized and inserted into pFastBacHTb (Invitrogen) vector in-framed with the N-terminal HIS tag from the vector. […] The protein concentration is determined by Bradford assay using BSA as the standard.
Binding Affinities of Compounds for the PPAR α, δ, γ Receptors are Assessed Using Scintillation Proximity Assay (SPA) Technology.
Biotinylated oligonucleotide(DR2) ^5′[…]^3′ (SEQ ID NO: 1) is used for binding of receptors to Yttrium silicate streptavidin-coated SPA beads (Perkin Elmer). The PPAR α, δ, γ and Retinoid X Receptor (RXR) α receptors (endogenously expressed as heterodimers) are cell lysates from Baculovirus expression systems in Sf9 cells. […] Non-specific binding is determined in the presence of 10000 nM unlabeled GW2331 (Kliewer, S. A. et al Proc. Natl. Acad. Sci. USA (1997), 94: 4318-4323) for the alpha and delta receptors and 2-methyl-2-[4-[3-[propyl[(5-pyridin-2-ylthiophen-2-yl)sulfonyl]amino]-propyl]phenoxy]propanoic (WO 2004/073606) for the gamma receptor. […]

`CCCc1c(NC(=O)CC(C)(C)C(=O)[O-])cccc1OCCCOc1cc(O)c(-c2ccc(F)cc2)cc1CC.[Na+]` [Example 2, Sodium 4-[[3-[3-[2-ethyl-4-(4-fluorophenyl)-5-hydroxy-phenoxy]propoxy]-2-propyl-phenyl]amino]-2,2-dimethyl-4-oxo-butanoate] was tested, and the Ki was 1380 nM.
